Measurements reported in patent US8202856B2 (Merck Serono SA, priority 2007, dated 2012).

Key:
[1] = biological target: S1P1 receptor (Homo sapiens, UniProt P21453); assay: 35S-GTPγS binding, membranes from CHO cells expressing S1P1; format: biochemical; conditions: CHO cell membranes expressing S1P1
Method in brief: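 Membranes (1–10 μg) from CHO cells expressing the receptor were incubated with compound in 20 mM HEPES pH 7.4, 10 mM MgCl2, 140 mM NaCl, 1.7 μM GDP, saponin and 0.2% BSA. [35S]GTPγS (added at 1.5 nM) was then bound for 60 min at 30 °C. Membrane-bound radioactivity, averaged over triplicates, is expressed relative to S1P activation (n=2).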

[2] = biological target: S1P3 receptor (Homo sapiens, UniProt Q99500); assay: 35S-GTPγS binding, membranes from CHO cells expressing S1P3; format: biochemical; conditions: CHO cell membranes expressing S1P3
S1P3 receptor, sequence (Q99500 whole entry): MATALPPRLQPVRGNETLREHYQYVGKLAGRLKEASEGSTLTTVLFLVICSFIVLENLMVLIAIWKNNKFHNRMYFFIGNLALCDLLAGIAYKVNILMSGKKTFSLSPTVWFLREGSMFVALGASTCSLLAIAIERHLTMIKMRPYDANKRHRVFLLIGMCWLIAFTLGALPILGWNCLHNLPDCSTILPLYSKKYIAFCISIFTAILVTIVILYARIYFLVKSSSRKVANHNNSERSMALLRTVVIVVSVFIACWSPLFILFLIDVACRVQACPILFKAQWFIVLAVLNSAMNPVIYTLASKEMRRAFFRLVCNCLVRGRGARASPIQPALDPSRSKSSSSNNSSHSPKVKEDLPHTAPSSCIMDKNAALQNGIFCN
Procedure: Receptor binding assay: Membranes were prepared from CHO cells expressing S1P1 or S1P3 for use in ligand and 35S-GTPTS binding studies. Cells were suspended in 50 mM TRIS, pH 7.4, 2 mM EDTA, 250 mM Sucrose (buffer A) and 1× Complete protease inhibitor cocktail (Roche), and disrupted at 4° C. by nitrogen decompression using a cell disruption bomb (Parr Instrument). Following centrifugation at 1000 RPM for 10 min at 4° C., the supernatant was suspended in buffer A and centrifuged again at 19000 RPM for 60 min at 4° C. The pellet was then suspended in 10 mM HEPES, pH 7.4, 1 mM EDTA, 250 mM Sucrose (Buffer B), and 1× Complete EDTA-free protease inhibitor cocktail and homogenized using a potter. Membranes were flash frozen in liquid nitrogen and stored at −80° C. [33P]sphingosine 1-phosphate (3000 Ci/mmol; American Radiolabeled Chemicals, Inc.) was added to test compounds in DMSO. Membranes and WGA SPA beads (GE Healthcare) were added to give a final volume of 100 μl in 96-well plates with assay concentrations of […] [33P]sphingosine 1-phosphate (respectively for S1P1 or S1P3), 50 mM HEPES, pH 7.5, 5 mM MgCl2, 100 mM NaCl, 0.4% fatty acid-free BSA, 1-5 μg/well of proteins and 100 μg/well of WGA SPA beads. Binding was performed for 60 min at room temperature on a shaker and bound radioactivity was measured on a PerkinElmer 1450 MicroBeta counter. Specific binding was calculated by subtracting remaining radioactivity in the presence of 1000-fold excess of unlabeled S1P. Binding data were analyzed using the GraphPad Prism program.
Measurements of ^35S-GTPγS Binding: Membranes (1 to 10 μg protein) prepared as described above, were incubated in 96-well Scintiplates (PerkinElmer) with test compounds diluted in DMSO, in 180 μl of 20 mM HEPES, pH 7.4, 10 mM MgCl2, 2 μg/well Saponin, 0.2% fatty acid free BSA (Assay buffer), 140 mM NaCl and 1.7 μM GDP. The assay was initiated with the addition of 20 μl of 1.5 nM [35S]-GTPγS (1100 Ci/mmol; GE Healthcare) in assay buffer. After 60 min incubation at 30° C. on a shaker, plates were centrifuged for 10 min at 2000 RPM. Supernatant was discarded and membrane bound radioactivity was measured on a PerkinElmer 1450 MicroBeta counter. Triplicate samples were averaged and expressed as response relative to S1P activation in absence of compound (n=2).

S1P1 receptor, sequence (P21453 whole entry): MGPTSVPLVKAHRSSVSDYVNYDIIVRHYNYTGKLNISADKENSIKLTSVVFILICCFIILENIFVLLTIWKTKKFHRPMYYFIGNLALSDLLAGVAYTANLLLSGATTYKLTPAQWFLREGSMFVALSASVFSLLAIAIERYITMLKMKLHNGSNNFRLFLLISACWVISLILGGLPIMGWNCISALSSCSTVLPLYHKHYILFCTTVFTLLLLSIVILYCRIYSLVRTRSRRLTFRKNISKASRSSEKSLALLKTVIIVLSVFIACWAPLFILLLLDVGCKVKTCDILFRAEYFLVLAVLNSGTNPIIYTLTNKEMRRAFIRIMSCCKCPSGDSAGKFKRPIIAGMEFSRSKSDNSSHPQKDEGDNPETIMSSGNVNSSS

Compound | EC50 [1] | EC50 [2]
O=C(O)c1ccc(-c2noc(-c3nnn(-c4ccccc4F)c3-c3ccccc3)n2)c(F)c1 [Example 33, 3-Fluoro-4-{5-[1-(2-fluorophenyl)-5-phenyl-1H-1,2,3-triazole-4-yl]-1,2,4-oxadiazole-3-yl}benzoic acid] | 501 nM | > 20000 nM
COCCc1c(-c2nc(-c3cccnc3)no2)nnn1-c1ccccc1F [Example 46, 3-{5-[1-(2-fluorophenyl)-5-(2-methoxyethyl)-1H-1,2,3-triazol-4-yl]-1,2,4-oxadiazol-3-yl}pyridine] | 516 nM | > 20000 nM
CCCCc1c(-c2nc(-c3ccccc3F)no2)nnn1-c1ccccc1F [Example 16, 5-5-[5-Butyl-1-(2-fluorophenyl)-1H-1,2,3-triazole-4-yl]-3-(2-fluorophenyl)-1,2,4-oxadiazole] | 158 nM | 7360 nM
COCc1c(-c2nc(-c3ccc(F)cc3F)no2)nnn1-c1ccccc1F [Example 8, 3-(2,4-Difluorophenyl)-5-[1-(2-fluorophenyl)-5-(methoxymethyl)-1H-1,2,3-triazole-4-yl]-1,2,4-oxadiazole] | 744 nM | > 10000 nM
COCc1c(-c2nc(-c3cccnc3)no2)nnn1-c1ccccc1F [Example 47, 3-{5-[1-(2-fluorophenyl)-5-(methoxymethyl)-1H-1,2,3-triazol-4-yl]-1,2,4-oxadiazol-3-yl}pyridine] | 672 nM | > 20000 nM
CCc1c(-c2nc(-c3cc(F)ccc3F)no2)nnn1-c1ccccc1F [Example 7, 3-(2,5-Difluorophenyl)-5-[5-ethyl-1-(2-fluorophenyl)-1H-1,2,3-triazole-4-yl]-1,2,4-oxadiazole] | – | > 30000 nM
Fc1ccccc1-n1nnc(-c2nc(-c3ccncc3)no2)c1-c1ccncc1 [Example 41, 4-[1-(2-fluorophenyl)-4-(3-pyridin-4-yl-1,2,4-oxadiazol-5-yl)-1H-1,2,3-triazol-5-yl]pyridine] | 160 nM | > 20000 nM
COCCc1c(-c2nc(-c3ccccc3F)no2)nnn1-c1ccccc1F [Example 49, 3-(2-fluorophenyl)-5-[1-(2-fluorophenyl)-5-(2-methoxyethyl)-1H-1,2,3-triazol-4-yl]-1,2,4-oxadiazole] | 119 nM | 13300 nM
COCc1c(-c2nc(-c3ccc4[nH]ccc4c3)no2)nnn1-c1ccccc1F [Example 65, 5-{5-[1-(2-fluorophenyl)-5-(methoxymethyl)-1H-1,2,3-triazol-4-yl]-1,2,4-oxadiazol-3-yl}-1H-indole] | 119 nM | > 20000 nM
COc1ccc(-c2noc(-c3nnn(-c4ccccc4F)c3-c3ccncc3)n2)cc1 [Example 48, 4-{1-(2-fluorophenyl)-4-[3-(4-methoxyphenyl)-1,2,4-oxadiazol-5-yl]-1H-1,2,3-triazol-5-yl}pyridine] | 127 nM | 10400 nM
Fc1ccccc1-c1noc(-c2nnn(-c3ccccc3F)c2C2CCOCC2)n1 [Example 59, 3-(2-fluorophenyl)-5-[1-(2-fluorophenyl)-5-(tetrahydro-2H-pyran-4-yl)-1H-1,2,3-triazol-4-yl]-1,2,4-oxadiazole] | 154 nM | > 20000 nM
Fc1ccc(-c2noc(-c3nnn(-c4ccccc4F)c3-c3ccncc3)n2)cc1F [Example 97, 4-[4-[3-(3,4-difluorophenyl)-1,2,4-oxadiazol-5-yl]-1-(2-fluorophenyl)-1H-1,2,3-triazol-5-yl]pyridine] | 60 nM | > 20000 nM
CCc1c(-c2nc(-c3ccccc3)no2)nnn1-c1ccccc1F [Example 5, 5-[5-Ethyl-1-(2-fluorophenyl)-1H-1,2,3-triazole-4-yl]-3-phenyl-1,2,4-oxadiazole] | 862 nM | > 30000 nM
Fc1ccc(F)c(-c2noc(-c3nnn(-c4ccccc4F)c3C3CC3)n2)c1 [Example 69, 5-[5-cyclopropyl-1-(2-fluorophenyl)-1H-1,2,3-triazol-4-yl]-3-(2,5-difluorophenyl)-1,2,4-oxadiazole] | 116 nM | > 20000 nM
COCCNCc1cccc(-c2noc(-c3nnn(-c4ccccc4F)c3-c3ccncc3)n2)c1 [Example 147, N-(3-{5-[1-(2-fluorophenyl)-5-pyridin-4-yl-1H-1,2,3-triazol-4-yl]-1,2,4-oxadiazol-3-yl}benzyl)-2-methoxyethanamine] | 577 nM | –

The next lines start with the values.

EC50 [1] | EC50 [2] | Compound
14 nM | 660 nM | Cc1cccc(-c2noc(-c3nnn(-c4ccccc4F)c3-c3ccncc3)n2)c1 [Example 104, 4-{1-(2-fluorophenyl)-4-[3-(3-methylphenyl)-1,2,4-oxadiazol-5-yl]-1H-1,2,3-triazol-5-yl}pyridine]
9 nM | 214 nM | Fc1ccccc1-n1nnc(-c2nc(-c3cccc(F)c3F)no2)c1-c1ccncc1 [Example 101, 4-[4-[3-(2,3-difluorophenyl)-1,2,4-oxadiazol-5-yl]-1-(2-fluorophenyl)-1H-1,2,3-triazol-5-yl]pyridine]
44 nM | 7250 nM | Fc1ccc(F)c(-c2noc(-c3nnn(-c4ccccc4F)c3-c3ccccn3)n2)c1 [Example 28, 2-[4-[3-(2,5-Difluorophenyl)-1,2,4-oxadiazole-5-yl]-1-(2-fluorophenyl)-1H-1,2,3-triazole-5-yl]pyridine]
13 nM | 835 nM | OC1CCN(Cc2ccc(-c3noc(-c4nnn(-c5ccccc5F)c4-c4ccncc4)n3)cc2)C1 (stereo not shown) [Example 142, 1-(4-{5-[1-(2-fluorophenyl)-5-pyridin-4-yl-1H-1,2,3-triazol-4-yl]-1,2,4-oxadiazol-3-yl}benzyl)pyrrolidin-3-ol]
45 nM | > 30000 nM | COCc1c(-c2nc(-c3cc(F)ccc3F)no2)nnn1-c1ccccc1F [Example 10, 3-(2,5-Difluorophenyl)-5-[1-(2-fluorophenyl)-5-(methoxymethyl)-1H-1,2,3-triazole-4-yl]-1,2,4-oxadiazole]
22 nM | 221 nM | Oc1ccc(-c2noc(-c3nnn(-c4ccccc4F)c3-c3ccccc3)n2)c(F)c1 [Example 18, 3-Fluoro-4-{5-[1-(2-fluorophenyl)-5-phenyl-1H-1,2,3-triazole-4-yl]-1,2,4-oxadiazole-3-yl}phenol]
17 nM | 242 nM | Fc1cccc(-c2noc(-c3nnn(-c4ccccc4F)c3-c3ccncc3)n2)c1 [Example 83, 4-{1-(2-fluorophenyl)-4-[3-(3-fluorophenyl)-1,2,4-oxadiazol-5-yl]-1H-1,2,3-triazol-5-yl}pyridine]
6 nM | 149 nM | Fc1cc(F)cc(-c2noc(-c3nnn(-c4ccccc4F)c3-c3ccncc3)n2)c1 [Example 102, 4-[4-[3-(3,5-difluorophenyl)-1,2,4-oxadiazol-5-yl]-1-(2-fluorophenyl)-1H-1,2,3-triazol-5-yl]pyridine]
1 nM | 318 nM | O=C(O)CCNCc1ccc(-c2noc(-c3nnn(-c4ccccc4F)c3-c3ccncc3)n2)cc1 [Example 127, N-(4-{5-[1-(2-fluorophenyl)-5-pyridin-4-yl-1H-1,2,3-triazol-4-yl]-1,2,4-oxadiazol-3-yl}benzyl)-beta-alanine]
4 nM | 164 nM | Fc1ccccc1-n1nnc(-c2nc(-c3ccc4[nH]ncc4c3)no2)c1-c1ccncc1 [Example 116, 5-{5-[1-(2-fluorophenyl)-5-pyridin-4-yl-1H-1,2,3-triazol-4-yl]-1,2,4-oxadiazol-3-yl}-1H-indazole]
53 nM | > 30000 nM | Fc1ccc(-c2noc(-c3nnn(-c4ccccc4F)c3-c3ccccc3)n2)c(F)c1 [Example 11, 3-(2,4-Difluorophenyl)-5-[1-(2-fluorophenyl)-5-phenyl-1H-1,2,3-triazole-4-yl]-1,2,4-oxadiazole]
10 nM | 741 nM | COc1cccc(-c2noc(-c3nnn(-c4ccccc4F)c3-c3ccncc3)n2)c1 [Example 51, 4-{1-(2-fluorophenyl)-4-[3-(3-methoxyphenyl)-1,2,4-oxadiazol-5-yl]-1H-1,2,3-triazol-5-yl}pyridine]
